Laboratory results as given in patent EP4635500A1, “THERAPEUTIC AGENT FOR BACTERIAL INFECTION” (Sumitomo Pharma Co., Ltd., priority 2022, dated 2024).
Converted amounts (≈) assume the structure as drawn. Where two headings read alike, the source gives them in different places.

Columns and labels:
Format in all cases: cell-based
Bacteroides spp. = assay: MIC, agar dilution, anaerobic bacteria (Example 9, Tables 17, 22); conditions: for MIC: (n)=Compound A µg/mL, 0=Compound A alone antibacterial
Porphyromonas spp. = assay: MIC, agar dilution, anaerobic bacteria (Example 9, Tables 19, 24); conditions: for MIC: (n)=Compound A µg/mL, 0=Compound A alone antibacterial
Gram-positive bacteria = assay: MIC, agar dilution, anaerobic bacteria (Example 9, Tables 21, 26)

With `Cc1ncc([N+](=O)[O-])n1CCO` [Metronidazole] the MICrange (Bacteroides spp.; Bacteroides spp.) was no more than 0.12 to 2 µg/mL, the MIC50 (Bacteroides spp.; Bacteroides spp., read-out: MIC50) was 1 µg/mL (≈ 5.84 µM) and the MIC90 (Bacteroides spp.; Bacteroides spp., read-out: MIC90) was 1 µg/mL (≈ 5.84 µM). It also gave an MIC (Bacteroides spp.; Bacteroides, KUB No. 2982 Bacteroidesfragilis) of 1 µg/mL (≈ 5.84 µM), an MIC (Bacteroides spp.; Bacteroides, KUB No. 6464 Bacteroides vulgarus) of 0.5 µg/mL (≈ 2.92 µM) and an MIC (Bacteroides spp.; Bacteroides, KUB No. 6480 Bacteroides thetaioraomicron) of 1 µg/mL (≈ 5.84 µM). It also gave an MIC (Bacteroides spp.; Bacteroides, KUB No. 6487 Bacteroides thetaiotamicron) of 0.25 µg/mL (≈ 1.46 µM), an MIC (Bacteroides spp.; KUB No. 2977 Bacteroides thetaiotaomicron ATCC 29741) of 2 µg/mL (≈ 11.7 µM) and an MIC (Bacteroides spp.; KUB No. 2983 Bacteroides fragilis) of 0.25 µg/mL (≈ 1.46 µM). It also gave an MIC (Bacteroides spp.; KUB No. 2984 Bacteroides thetaiotaomicron) of 1 µg/mL (≈ 5.84 µM), an MIC (Bacteroides spp.; KUB No. 3003 Bacteroides fragilis ATCC 25285) of 0.5 µg/mL (≈ 2.92 µM) and an MIC (Bacteroides spp.; KUB No. 3009 Bacteroides ovatus) of 1 µg/mL (≈ 5.84 µM). It also gave an MIC (Bacteroides spp.; KUB No. 6458 Bacteroides fragilis) of 0.5 µg/mL (≈ 2.92 µM), an MIC (Bacteroides spp.; KUB No. 6459 Bacteroides stercoris) of 1 µg/mL (≈ 5.84 µM) and an MIC (Bacteroides spp.; KUB No. 6460 Bacteroides thetaiotaomicron) of 2 µg/mL (≈ 11.7 µM). For the same compound, the MIC (Bacteroides spp.; KUB No. 6461 Bacteroides fragilis) was 0.5 µg/mL (≈ 2.92 µM), the MIC (Bacteroides spp.; KUB No. 6463 Bacteroides fragilis) was 0.5 µg/mL (≈ 2.92 µM) and the MIC (Bacteroides spp.; KUB No. 6465 Bacteroides thetaiotaomicron) was 2 µg/mL (≈ 11.7 µM). The MIC (Bacteroides spp.; KUB No. 6466 Bacteroides fragilis) was 1 µg/mL (≈ 5.84 µM), the MIC (Bacteroides spp.; KUB No. 6467 Bacteroides fragilis) was 0.5 µg/mL (≈ 2.92 µM) and the MIC (Bacteroides spp.; KUB No. 6468 Bacteroides fragilis) was 1 µg/mL (≈ 5.84 µM). It also gave an MIC (Bacteroides spp.; KUB No. 6469 Bacteroides fragilis) of 1 µg/mL (≈ 5.84 µM), an MIC (Bacteroides spp.; KUB No. 6470 Bacteroides fragilis) of 2 µg/mL (≈ 11.7 µM) and an MIC (Bacteroides spp.; KUB No. 6471 Bacteroides fragilis) of 1 µg/mL (≈ 5.84 µM). It also gave an MIC (Bacteroides spp.; KUB No. 6472 Bacteroides stercoris) of 0.5 µg/mL (≈ 2.92 µM), an MIC (Bacteroides spp.; KUB No. 6473 Bacteroides fragilis) of 1 µg/mL (≈ 5.84 µM) and an MIC (Bacteroides spp.; KUB No. 6474 Bacteroides fragilis) of 0.5 µg/mL (≈ 2.92 µM). It also gave an MIC (Bacteroides spp.; KUB No. 6475 Bacteroides thetaiotaomicron) of 1 µg/mL (≈ 5.84 µM), an MIC (Bacteroides spp.; KUB No. 6476 Bacteroides vulgatus) of 1 µg/mL (≈ 5.84 µM) and an MIC (Bacteroides spp.; KUB No. 6477 Bacteroides fragilis) of no more than 0.12 µg/mL. It also gave an MIC (Bacteroides spp.; KUB No. 6478 Bacteroides fragilis) of 0.25 µg/mL (≈ 1.46 µM), an MIC (Bacteroides spp.; KUB No. 6481 Bacteroides fragilis) of 1 µg/mL (≈ 5.84 µM) and an MIC (Bacteroides spp.; KUB No. 6483 Bacteroides fragilis) of 0.25 µg/mL (≈ 1.46 µM). It also gave an MIC (Bacteroides spp.; KUB No. 6484 Bacteroides fragilis) of 0.5 µg/mL (≈ 2.92 µM), an MIC (Bacteroides spp.; KUB No. 6485 Bacteroides vulgatus) of 0.25 µg/mL (≈ 1.46 µM) and an MIC (Bacteroides spp.; KUB No. 6486 Bacteroides fragilis) of 1 µg/mL (≈ 5.84 µM). For the same compound, the MIC (Bacteroides spp.; KUB No. 6490 Bacteroides fragilis) was 0.5 µg/mL (≈ 2.92 µM), the MIC (Bacteroides spp.; KUB No. 6491 Bacteroides fragilis) was 1 µg/mL (≈ 5.84 µM) and the MIC (Bacteroides spp.; KUB No. 6493 Bacteroides thetaiotaomicron) was 1 µg/mL (≈ 5.84 µM). The MIC (Bacteroides spp.; KUB No. 6496 Bacteroides fragilis) was 1 µg/mL (≈ 5.84 µM), the MIC (Bacteroides spp.; KUB No. 6497 Bacteroides vulgatus) was 1 µg/mL (≈ 5.84 µM) and the MIC (Bacteroides spp.; KUB No. 6502 Bacteroides fragilis) was 0.25 µg/mL (≈ 1.46 µM). It also gave an MIC (Bacteroides spp.; KUB No. 6503 Bacteroides thetaiotaomicron) of 1 µg/mL (≈ 5.84 µM), an MIC (Bacteroides spp.; KUB No. 6504 Bacteroides caccae) of 1 µg/mL (≈ 5.84 µM) and an MIC (Bacteroides spp.; KUB No. 6506 Bacteroides thetaiotaomicron) of 1 µg/mL (≈ 5.84 µM). It also gave an MIC (Bacteroides spp.; KUB No. 6509 Bacteroides fragilis) of no more than 0.12 µg/mL, an MIC (Bacteroides spp.; KUB No. 6511 Bacteroides salyersiae) of 1 µg/mL (≈ 5.84 µM) and an MIC (Bacteroides spp.; KUB No. 6513 Bacteroides fragilis) of 0.5 µg/mL (≈ 2.92 µM). For the same compound, the MIC (Bacteroides spp.; KUB No. 6515 Bacteroides thetaiotaomicron) was 1 µg/mL (≈ 5.84 µM), the MIC (Bacteroides spp.; KUB No. 6518 Bacteroides fragilis) was 0.5 µg/mL (≈ 2.92 µM) and the MIC (Bacteroides spp.; KUB No. 6522 Bacteroides fragilis) was 1 µg/mL (≈ 5.84 µM). It also gave an MIC (Bacteroides spp.; KUB No. 6523 Bacteroides fragilis) of 1 µg/mL (≈ 5.84 µM), an MIC (Bacteroides spp.; KUB No. 6525 Bacteroides fragilis) of 1 µg/mL (≈ 5.84 µM) and an MIC (Bacteroides spp.; KUB No. 6527 Bacteroides thetaiotaomicron) of 1 µg/mL (≈ 5.84 µM). It also gave an MIC (Bacteroides spp.; KUB No. 6530 Bacteroides thetaiotaomicron) of 1 µg/mL (≈ 5.84 µM), an MIC (Bacteroides spp.; KUB No. 6535 Bacteroides fragilis) of 0.5 µg/mL (≈ 2.92 µM) and an MIC (Bacteroides spp.; KUB No. 6544 Bacteroides vulgatus) of 1 µg/mL (≈ 5.84 µM). The MIC (Bacteroides spp.; KUB No. 6545 Bacteroides thetaiotaomicron) was 0.5 µg/mL (≈ 2.92 µM), the MIC (Bacteroides spp.; KUB No. 6556 Bacteroides vulgatus) was 0.5 µg/mL (≈ 2.92 µM) and the MIC (Porphyromonas spp.; KUB No. 6663 Porphyromonas gingivalis) was no more than 0.12 µg/mL. The MIC (Porphyromonas spp.; KUB No. 6666 Porphyromonas gingivalis) was no more than 0.12 µg/mL, the MIC (Porphyromonas spp.; KUB No. 6667 Porphyromonas gingivalis) was no more than 0.12 µg/mL and the MIC (Porphyromonas spp.; KUB No. 6668 Porphyromonas gingivalis) was no more than 0.12 µg/mL. For the same compound, the MIC (Porphyromonas spp.; KUB No. 6669 Porphyromonas gingivalis) was no more than 0.12 µg/mL, the MIC (Porphyromonas spp.; KUB No. 6670 Porphyromonas gingivalis) was no more than 0.12 µg/mL and the MIC (Porphyromonas spp.; KUB No. 6671 Porphyromonas gingivalis) was no more than 0.12 µg/mL. The MIC (Porphyromonas spp.; KUB No. 6672 Porphyromonas gingivalis) was no more than 0.12 µg/mL, the MIC (Porphyromonas spp.; KUB No. 6673 Porphyromonas gingivalis) was no more than 0.12 µg/mL and the MIC (Porphyromonas spp.; KUB No. 6674 Porphyromonas gingivalis) was no more than 0.12 µg/mL. For the same compound, the MIC (Porphyromonas spp.; KUB No. 6676 Porphyromonas gingivalis) was no more than 0.12 µg/mL, the MIC (Porphyromonas spp.; KUB No. 6677 Porphyromonas gingivalis) was no more than 0.12 µg/mL and the MIC (Porphyromonas spp.; KUB No. 6678 Porphyromonas gingivalis) was no more than 0.12 µg/mL. It also gave an MIC (Porphyromonas spp.; KUB No. 6679 Porphyromonas gingivalis) of no more than 0.12 µg/mL, an MIC (Porphyromonas spp.; KUB No. 6680 Porphyromonas gingivalis) of no more than 0.12 µg/mL and an MIC (Porphyromonas spp.; KUB No. 6681 Porphyromonas gingivalis) of no more than 0.12 µg/mL. It also gave an MIC (Porphyromonas spp.; KUB No. 6682 Porphyromonas gingivalis) of no more than 0.12 µg/mL, an MIC (Porphyromonas spp.; KUB No. 6683 Porphyromonas gingivalis) of no more than 0.12 µg/mL and an MIC (Porphyromonas spp.; KUB No. 6684 Porphyromonas gingivalis) of no more than 0.12 µg/mL. It also gave an MIC (Porphyromonas spp.; KUB No. 6685 Porphyromonas gingivalis) of no more than 0.12 µg/mL, an MIC (Porphyromonas spp.; KUB No. 6686 Porphyromonas gingivalis) of no more than 0.12 µg/mL and an MIC (Porphyromonas spp.; KUB No. 6687 Porphyromonas gingivalis) of no more than 0.12 µg/mL. It also gave an MIC (Porphyromonas spp.; KUB No. 6688 Porphyromonas gingivalis) of no more than 0.12 µg/mL, an MIC (Porphyromonas spp.; Porphyromonas, KUB No. 6665 Porphyromonas assaccharolytica) of no more than 0.12 µg/mL and an MIC50 (Porphyromonas spp.; Porphyromonas, table at the place of Table 24, Prevotella spp., read-out: MIC50) of no more than 0.12 µg/mL. For the same compound, the MIC90 (Porphyromonas spp.; Porphyromonas, table at the place of Table 24, Prevotella spp., read-out: MIC90) was no more than 0.12 µg/mL, the MICrange (Porphyromonas spp.; table at the place of Table 24, Prevotella spp.) was no more than 0.12 µg/mL and the MIC (Gram-positive bacteria; ATCC43255, KUB No. 3518 Clostridioides difficile ATCC 43255, read-out: MIC) was 0.5 µg/mL (≈ 2.92 µM). It also gave an MIC (Gram-positive bacteria; ATCC700057, KUB No. 2978 Clostridioides difficile ATCC 700057, read-out: MIC) of 0.5 µg/mL (≈ 2.92 µM), an MIC (Gram-positive bacteria; ATCCBAA1803, KUB No. 3511 Clostridioides difficile ATCC BAA-1803, read-out: MIC) of 1 µg/mL (≈ 5.84 µM) and an MIC (Gram-positive bacteria; ATCCBAA1870, KUB No. 3385 Clostridioides difficile ATCC BAA-1870, read-out: MIC) of 0.5 µg/mL (≈ 2.92 µM). It also gave an MIC (Gram-positive bacteria; Cutibacterium acnes, ATCC11827) greater than 64 µg/mL, an MIC (Gram-positive bacteria; Finegoldia magna, ATCC29328) of 1 µg/mL (≈ 5.84 µM) and an MIC50 (Gram-positive bacteria; Gram-positive bacteria, read-out: MIC50) of 0.5 µg/mL (≈ 2.92 µM). For the same compound, the MIC90 (Gram-positive bacteria; Gram-positive bacteria, read-out: MIC90) was 2 µg/mL (≈ 11.7 µM), the MIC (Gram-positive bacteria; KUB No. 3013 Bulleidia extructa, read-out: MIC) was 2 µg/mL (≈ 11.7 µM) and the MIC (Gram-positive bacteria; KUB No. 3014 Atropobium rimae, read-out: MIC) was 2 µg/mL (≈ 11.7 µM). For the same compound, the MIC (Gram-positive bacteria; Olsenella uli) was 2 µg/mL (≈ 11.7 µM), the MIC (Gram-positive bacteria; Peptoniphilus asaccharolyticus, ATCC14963) was 0.5 µg/mL (≈ 2.92 µM) and the MIC (Gram-positive bacteria; Peptoniphilus indolicus) was 0.25 µg/mL (≈ 1.46 µM). It also gave an MIC (Gram-positive bacteria; Peptostreptococcus anaerobius) of 0.5 µg/mL (≈ 2.92 µM) and an MIC (Gram-positive bacteria; Schaalia odontolytica, ATCC17929, KUB No. 3488 Actinomyces odontolyticus ATCC 17929, read-out: MIC) of 32 µg/mL (≈ 187 µM).
